Experimental data reported in patent US7799812B2, “Reverse isoxazoles” (Novartis AG, priority 2006, dated 2010).

Molecular target: T1, human EDG-1 (S1P1) (Homo sapiens, UniProt P21453)
T1 construct: c-myc (N); expressed in transfected cells
Experiment: S1P1 (EDG-1) GTP [γ-35S] binding assay, membranes from CHO cells
Format: biochemical
Method: A. In vitro: GPCR Activation Assay Measuring GTP [γ-^35S] Binding to Membranes Prepared from CHO Cells Expressing Human EDG Receptors
S1P1 (EDG-1) GTP [γ-^35S] binding assay: Homogenized membranes are prepared from CHO cell clones stably expressing a human EDG-1 N-terminal c-myc tag. Cells are grown in suspension in two 850 cm^2 roller bottles for three or fours days before harvesting. The cells are centrifuged down, washed once with cold PBS, and resuspended in ≦20 ml of Buffer A (20 mM HEPES, pH 7.4, 10 mM EDTA, EDTA-free complete protease inhibitor cocktail [1 tablet/25 ml]). The cell suspension is homogenized on ice, using a Polytron homogenizer at 30000 rpm at three intervals of 15 seconds each. The homogenate is first centrifuged at 2000 rpm on a tabletop low speed centrifuge for 10 minutes. The supernatant, after passing through a cell strainer, is then re-centrifuged at 50,000×g for 25 minutes at 4° C. The pellet is resuspended into buffer B (15% glycerol, 20 mM HEPES, pH 7.4, 0.1 mM EDTA, EDTA-free complete protease inhibitor cocktail [1 tablet/10 ml]). Protein concentration of the preparation is determined using the BCA Protein Assay kit (Pierce) using BSA as standard. The membranes are aliquoted and kept frozen at −80° C.
Solutions of test compounds ranging from 10 mM to 0.01 nM are prepared in DMSO. S1P is diluted in 4% BSA solution as positive controls. The desired amount of membrane preparation is diluted with ice-cold assay buffer (20 mM HEPES, pH 7.4, 100 mM NaCl, 10 mM MgCl2, 0.1% Fatty acid-free BSA, 5 μM GDP) and vortexed well. 2 μl or less of compound is distributed into each well of a round-bottom 96-well polystyrene assay plate, followed by addition of 100 μl of diluted membranes (3-10 μg/well) and kept on ice until the addition of hot GTPγS. [^35S]-GTPγS is diluted 1:1000 (v/v) with cold assay buffer and 100 μl is added into each well. The reaction is carried out at room temperature for 90 minutes before the membranes are harvested onto Perkin-Elmer Unifilter® GF/B-96 filter plate using a Packard Filtermate Harvester. […]

T1 sequence (P21453 whole entry): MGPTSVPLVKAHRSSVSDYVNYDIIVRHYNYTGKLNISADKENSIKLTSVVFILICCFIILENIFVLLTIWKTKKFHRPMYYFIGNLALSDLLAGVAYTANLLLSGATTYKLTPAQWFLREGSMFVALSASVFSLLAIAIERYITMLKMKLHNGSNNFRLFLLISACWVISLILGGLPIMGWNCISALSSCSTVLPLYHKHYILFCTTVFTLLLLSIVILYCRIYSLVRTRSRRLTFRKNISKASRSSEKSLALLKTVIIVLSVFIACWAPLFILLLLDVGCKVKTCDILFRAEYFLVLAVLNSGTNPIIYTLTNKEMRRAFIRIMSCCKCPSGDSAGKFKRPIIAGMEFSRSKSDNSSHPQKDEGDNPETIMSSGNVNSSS

EC50, < 1000 nM:
O=C(O)CCNS(=O)(=O)c1ccc(-c2nc(-c3ccc(-c4ccccc4)c(C(F)(F)F)c3)no2)cc1 [Example 4, 3-{4-[3-(2-Trifluoromethyl-biphenyl-4-yl)-[1,2,4]oxadiazol-5-yl]-benzene-sulfonylamino}-propionic acid]
NS(=O)(=O)c1ccc(-c2nc(-c3ccc(-c4ccccc4)c(C(F)(F)F)c3)no2)cc1 [Example 13]
O=C(O)CCC(=O)Nc1ccc(-c2nc(-c3ccc(C4CCCCC4)c(C(F)(F)F)c3)no2)cc1 [Example 21]
